The values that follow come from patent publication US12428415B2, “Matriptase 2 inhibitors and uses thereof” (Disc Medicine, Inc., priority 2018, dated 2025).

One may read the inhibition as the share of the control response that was lost under treatment.

The first test addresses T1, Human Recombinant Matriptase 2 (Homo sapiens, UniProt Q8IU80).
T1 construct: purchased Enzo Life Sciences (an in-house preparation was also used) ALX-201-752-1
T1 sequence (Q8IU80 1-811): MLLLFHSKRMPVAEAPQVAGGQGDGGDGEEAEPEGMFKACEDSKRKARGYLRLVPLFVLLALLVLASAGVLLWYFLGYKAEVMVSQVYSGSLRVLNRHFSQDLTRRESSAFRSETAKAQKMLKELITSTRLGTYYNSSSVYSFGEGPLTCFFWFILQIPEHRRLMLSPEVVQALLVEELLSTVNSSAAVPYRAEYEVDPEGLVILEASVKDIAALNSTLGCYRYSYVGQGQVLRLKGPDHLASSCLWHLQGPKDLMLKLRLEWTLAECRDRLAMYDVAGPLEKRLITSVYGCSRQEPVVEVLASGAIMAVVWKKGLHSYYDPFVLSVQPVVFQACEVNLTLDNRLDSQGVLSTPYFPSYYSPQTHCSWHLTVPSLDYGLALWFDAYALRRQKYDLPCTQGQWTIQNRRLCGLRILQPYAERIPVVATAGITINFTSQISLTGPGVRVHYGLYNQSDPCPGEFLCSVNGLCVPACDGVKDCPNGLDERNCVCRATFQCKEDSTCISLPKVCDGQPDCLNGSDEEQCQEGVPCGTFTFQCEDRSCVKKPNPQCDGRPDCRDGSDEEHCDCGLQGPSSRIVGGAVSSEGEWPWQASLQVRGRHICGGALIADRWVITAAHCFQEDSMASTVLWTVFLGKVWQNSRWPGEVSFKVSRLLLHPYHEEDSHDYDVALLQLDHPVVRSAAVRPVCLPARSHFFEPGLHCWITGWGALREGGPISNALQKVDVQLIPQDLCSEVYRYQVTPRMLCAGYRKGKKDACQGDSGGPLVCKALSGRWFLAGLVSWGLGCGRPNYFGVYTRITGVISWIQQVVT
Nature of the test: Matriptase 2 fluorescence based inhibition assay, Method B (50 mM TRIS pH 7.5, 150 mM NaCl, 0.01% gelatin). It counts as biochemical. The following applies: 1 uM compound; Assay Used = B. The essentials: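 Fluorogenic substrate Boc-Gln-Ala-Arg-7-amido-4-methylcoumarin (100 μM) cleavage read at Ex 360/Em 480 nm 60 min after addition, following 30 min enzyme–compound preincubation at 25° C. Enzyme was 7 nM commercial or 15 nM in-house; DMSO 1%. IC50s fitted by non-linear sigmoidal regression.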
Regarding `CC1CCCCN1CCCNC(=O)c1cc2ccc(C(=N)N)cc2n1Cc1cccc2ccccc12` (stereo not shown) [Compound I-479], the “Mar-2 % inhibition at 1 uM” value was “C (C represents 50%≤I≤75%)”.

Staying with this test, now noted: 1 uM compound; Assay Used = B (Method B).
With `N#Cc1c(C(=O)N[C@H]2CC[C@H](N)CC2)n(Cc2cccc3ccccc23)c2cc(C(=N)N)ccc12` [Compound I-657], the “Mar-2 % inhibition at 1 uM” value was “A (A represents 0%≤I≤25%)”.

Still in this test, the particulars now being: 1 uM compound; Assay Used = B (Method B); read-out: Mar-2 % inhibition at 1 uM.
Consider `CCOC(=O)c1cc2ccc(C(N)=NO)cc2n1Cc1cc(Oc2ccccc2)cc2ccccc12` [Compound I-663], for which the inhibition at 1 µM is 0 to 25%. For the compound `N=C(N)c1ccc2cc(C(=O)N[C@H]3CC[C@H](N)CC3)n(Cc3cc(Oc4ccc(-c5ccccc5)cc4)cc4ccccc34)c2c1` [Compound I-715], the inhibition at 1 µM lay within 0 to 25%.

As for `CC(C)COC(=O)NC(=N)c1ccc2cc(C(=O)NC3CCN(C)CC3)n(Cc3cccc4ccccc34)c2c1` [Compound I-783], the inhibition at 1 µM fell in the range of 0 to 25%. `Cn1c(C(=O)O)c(Cc2cccc3ccccc23)c2cc(/C(N)=N/O)ccc21` [Compound I-641]: the inhibition at 1 µM was in the range of 0 to 25%. As for `N=C(N)c1ccc2cc(C(=O)N[C@H]3CC[C@H](N)CC3)n(C[C@H]3CCc4ccccc43)c2c1` (racemic) [Compound I-616], the inhibition at 1 µM was in the range of 25 to 50%. Same read-out and setting: then `CCOC(=O)c1cc2ccc(C(=N)N)cc2n1Cc1cc(Oc2ccccc2)cc2ccccc12` [Compound I-662], with 25 to 50%; and `NC(=NO)c1ccc2cc(C(=O)O)n(Cc3cc(S(=O)(=O)c4ccccc4)cc4ccccc34)c2c1` [Compound I-659], with 0 to 25%.

As for `CO/N=C(\N)c1ccc2c(c1)c(Cc1cccc3ccccc13)c(C(=O)O)n2C` [Compound I-684], the inhibition at 1 µM lay in the range of 0 to 25%. `CS(=O)(=O)N[C@H]1CC[C@@H](NC(=O)c2cc3ccc(C(=N)N)nc3n2Cc2cccc3ccccc23)CC1` [Compound I-723]: the inhibition at 1 µM is 75 to 100%. Turning to `COC(=O)N[C@H]1CC[C@H](NC(=O)c2cc3ccc(C(=N)N)cc3n2Cc2cccc3ccccc23)CC1` [Compound I-735], the inhibition at 1 µM lay in the range of 25 to 50%. Turning to `CO/N=C(\N)c1ccc2cc(C(=O)O)n(Cc3cccc4ccccc34)c2n1` [Compound I-704, (Z)-6-(N′-methoxycarbamimidoyl)-1-(naphthalen-1-ylmethyl)-1H-pyrrolo[2,3-b]pyridine-2-carboxylic Acid], the inhibition at 1 µM lay within 0 to 25%. Same read-out and setting: then `N=C(N)c1ccc2cc(C(=O)N[C@H]3CC[C@H](N)CC3)n(Cc3cc(Oc4ccccn4)cc4ccccc34)c2c1` [Compound I-599], with 75 to 100%.

On to `NCc1ccc2cc(C(=O)N[C@H]3CC[C@H](N)CC3)n(Cc3cc(Oc4ncccn4)cc4ccccc34)c2c1` [Compound I-605], for which the inhibition at 1 µM was in the range of 50 to 75%.

Turning to `N=C(N)c1ccc2cc(C(=O)O)n(Cc3cc(Oc4ccccn4)cc4ccccc34)c2c1` [Compound I-628], the inhibition at 1 µM is 75 to 100%. Regarding `CC(C)COC(=O)NC(=N)c1ccc2cc(C(=O)O)n(Cc3cc(Oc4ccccc4)cc4ccccc34)c2c1` [Compound I-622], the inhibition at 1 µM fell in the range of 0 to 25%.

Turning to `N=C(N)c1ccc2cc(C(=O)N[C@H]3CC[C@H](N)CC3)n(Cc3cc(C(=O)OCc4ccccc4)cc4ccccc34)c2c1` [Compound I-774], the inhibition at 1 µM lay within 75 to 100%. With `CCn1c(C(=O)N[C@H]2CC[C@H](N)CC2)c(Cc2cccc3ccccc23)c2cc(C(=N)NN)ccc21` [Compound I-664], the inhibition at 1 µM was 0 to 25%. On to `Cc1ccc(S(=O)(=O)Oc2cc(Cn3c(C(=O)O)cc4ccc(C(=N)N)cc43)c3ccccc3c2)cc1` [Compound I-647], for which the inhibition at 1 µM was in the range of 75 to 100%. `NCc1ccc2cc(C(=O)N[C@H]3CC[C@H](N)CC3)n(Cc3cc(S(=O)(=O)c4ccccc4)cc4ccccc34)c2c1` [Compound I-636]: the inhibition at 1 µM lay within 25 to 50%. For `CC(=O)NC(=N)c1ccc2cc(C(=O)NC3CCN(C)CC3)n(Cc3cccc4ccccc34)c2c1` [Compound I-762, 6-(N-acetylcarbamimidoyl)-N-(1-methylpiperidin-4-yl)-1-(naphthalen-1-ylmethyl)-1H-indole-2-carboxamide], the inhibition at 1 µM fell in the range of 0 to 25%.

Staying with this test, now noted: 1 uM compound; Assay Used = B; read-out: Mar-2 % inhibition at 1 uM.
Consider `CC(C)(C)OC(=O)NC(=N)c1ccc2cc(C(=O)N3CCCN(C(=O)OC(C)(C)C)CC3)n(Cc3cccc4ccccc34)c2c1` [Compound I-423], for which the inhibition at 1 µM lay within 0 to 25%.

In the case of `N=C(N)c1ccc2cc(C(=O)N3CCC(CN)CC3)n(Cc3cccc4ccccc34)c2c1` [Compound I-429], the inhibition at 1 µM is 50 to 75%. As for `N=C(N)c1ccc2cc(C(=O)NCCO)n(Cc3cc(Oc4ncccn4)cc4ccccc34)c2c1` [Compound I-582], the inhibition at 1 µM fell in the range of 75 to 100%. Regarding `N=C(N)c1ccc2cc(C(=O)N[C@H]3CC[C@H](C(=O)O)CC3)n(Cc3cccc4ccccc34)c2c1` [Compound I-473], the inhibition at 1 µM lay within 25 to 50%. On to `N=C(N)c1ccc2cc(C(=O)N[C@H]3CC[C@H](N)CC3)n(Cc3ccc(C(N)=O)cc3)c2c1` [Compound I-500], for which the inhibition at 1 µM was 25 to 50%. Regarding `N=C(N)c1ccc2cc(C(=O)OCc3ccccc3)n(Cc3cc(Oc4ncccn4)cc4ccccc34)c2c1` [Compound I-596], the inhibition at 1 µM fell in the range of 25 to 50%.

As for `CCOC(=O)NC(=N)c1ccc2cc(C(=O)OCC)n(Cc3cc(Oc4ncccn4)cc4ccccc34)c2c1` [Compound I-559], the inhibition at 1 µM was 25 to 50%. For `CC(C)(C)OC(=O)N[C@H]1CC[C@H](NC(=O)c2cc3ccc(C(=N)N)cc3n2CCc2cccc3ccccc23)CC1` [Compound I-404], the inhibition at 1 µM is 0 to 25%. The same measure, in the same setting: to `N=C(N)c1ccc2cc(C(=O)NC3CCCC(N)C3)n(Cc3cccc4ccccc34)c2c1` (stereo not shown) [Compound I-467] belongs 75 to 100%; to `COC(=O)NCCNC(=O)c1cc2ccc(C(=N)N)cc2n1Cc1cc(Oc2ncccn2)cc2ccccc12` [Compound I-564], 75 to 100%; to `N=C(N)c1ccc2cc(C(=O)Nc3ccc(NC(=O)c4ccccn4)cc3)n(Cc3cccc4ccccc34)c2c1` [Compound I-430], 50 to 75%. With `N=C(N)c1ccc2cc(C(=O)O)n(Cc3ccc4ccccc4c3)c2c1` [Compound I-459], the inhibition at 1 µM fell in the range of 25 to 50%.

Consider `N=C(N)c1ccc2cc(C(=O)NCC3CCNCC3)[nH]c2c1` [Compound I-496, 6-carbamimidoyl-N-(piperidin-4-ylmethyl)-1H-indole-2-carboxamide], for which the inhibition at 1 µM was in the range of 0 to 25%. As to `N=C(N)c1ccc2cc(C(=O)N[C@H]3CC[C@H](N)CC3)n(Cc3ccc(C(=O)O)c4ccccc34)c2c1` [Compound I-508], the inhibition at 1 µM is 25 to 50%. The same measure, in the same setting: then `N=C(N)c1ccc2cc(C(=O)N[C@H]3CC[C@H](N)CC3)n(Cc3ccnc4ccccc34)c2c1` [Compound I-499], with 50 to 75%. As to `COC(=O)NC(=N)c1ccc2cc(C(=O)O)n(Cc3cc(Oc4ncccn4)cc4ccccc34)c2c1` [Compound I-561], the inhibition at 1 µM is 25 to 50%.

For `CN1CCC(NC(=O)c2cc3ccc(C(=N)N)cc3n2Cc2cc(Oc3ncccn3)cc3ccccc23)CC1` [Compound I-594], the inhibition at 1 µM fell in the range of 75 to 100%. As for `N=C(N)c1ccc2c(C(N)=O)c(C(=O)N[C@H]3CC[C@H](N)CC3)n(Cc3cccc4ccccc34)c2c1` [Compound I-513, N2-((1r,4r)-4-aminocyclohexyl)-6-carbamimidoyl-1-(naphthalen-1-ylmethyl)-1H-indole-2,3-dicarboxamide], the inhibition at 1 µM is 25 to 50%. Same read-out and setting: to `N=C(N)c1ccc2cc(S(=O)(=O)N[C@H]3CC[C@H](N)CC3)n(Cc3cccc4ccccc34)c2c1` [Compound I-522, 2-(N-((1r,4r)-4-aminocyclohexyl)sulfamoyl)-1-(naphthalen-1-ylmethyl)-1H-indole-6-carboximidamide] belongs 50 to 75%.

The test is the same for the next values; noted with them: compound at 1 uM; Assay Used: B; read-out: Mar-2 % inhibition at 1 uM.
As for `COc1ccc2ccccc2c1Cn1c(C(=O)N[C@H]2CC[C@H](N)CC2)cc2ccc(C(=N)N)cc21` [Compound I-799], the inhibition at 1 µM lay in the range of 0 to 25%. Take `C[C@@H](c1cccc2ccccc12)n1c(C(=O)N[C@H]2CC[C@H](N)CC2)cc2ccc(/C(N)=N/O)cc21` [Compound I-802]: the inhibition at 1 µM is 0 to 25%. The same measure, in the same setting: to `N=C(N)c1ccc2cc(C(=O)N[C@H]3CC[C@H](N)CC3)n(Cc3cc(Br)cc4ccccc34)c2c1` [Compound I-819] belongs 75 to 100%. Same read-out and setting: to `N=C(N)c1ccc2cc(C(=O)N[C@H]3CC[C@H](N)CC3)n(Cc3cccc4sccc34)c2c1` [Compound I-823] belongs 50 to 75%.

The same test, now with this note: read-out: Mar-2 % inhibition at 1 uM.
Regarding `COC(=O)NCCOC(=O)c1cc2ccc(C(=N)NC(=O)Oc3ccccc3)cc2n1Cc1cc(Oc2ncccn2)cc2ccccc12` [Compound I-554], the inhibition at 1 µM was in the range of 0 to 25%.
